Assay results taken from patent US11542233B2, “Compounds, compositions and methods of use” (Aquinnah Pharmaceuticals, Inc., priority 2016, dated 2023).

tested on: TDP-43 aggregation in PC12 cells stably expressing GFP-tagged mutant TDP-43 (TDP-43^Q33IK::eGFP); experiment: In vitro efficacy assay: inhibition of TDP-43 inclusions, concentration-response, fluorescence microscopy; assay type: cell-based; conditions: PC12 cells, 1 hour pre-treatment, 15 μM sodium arsenite for 23 hours, 10-point dose response curve
Description: Exemplary compounds of the invention were evaluated for efficacy in inhibiting TDP-43 inclusions using a concentration-response assay. Briefly, PC12 cells stably expressing a GFP-tagged mutant form of TDP-43 (TDP-43^Q33IK::eGFP) were pre-treated for 1 hour with exemplary compounds and stressed with 15 μM sodium arsenite for 23 hours to induce TDP-43 aggregation. The inhibitory effect on TDP-43 aggregation was measured using fluorescence microscopy. The ratio of cells with TDP-43 aggregates was calculated based on the total number of cells with detectable GFP expression. In the table, “A” indicates an IC50 of less than 100 nM, “B” indicates an IC50 range from 100 nM to 500 nM; “C” indicates an IC50 range from 500 nM to 2 μM; and “D” indicates an IC50 greater than 2 μM.

| IC50 [nM] | SMILES |
| --- | --- |
| > 2000 | CCN(C(=O)c1cc2ccccc2[nH]1)[C@H]1CCC[C@@H](NCc2cccc(F)c2)C1 [Compound 122] |

same assay, conditions: Rattus norvegicus, PC-12, PC12 cells, 1 hour pre-treatment, 15 μM sodium arsenite for 23 hours, 10-point dose response curve

| SMILES | IC50 [nM] |
| --- | --- |
| CCN(C(=O)c1cc2ccccc2[nH]1)[C@H]1CCC[C@@H](NCc2oc3ccccc3c2C)C1 [Compound 449] | < 100 |
| CCN(C(=O)c1cc2ccccc2[nH]1)[C@H]1CCC[C@@H](NCc2cccc(N=[N+]=[N-])c2)C1 [Compound 316, N-((1S,3R)-3-((3-azidobenzyl)amino)cyclohexyl)-N-ethyl-1H-indole-2-carboxamide] | < 100 |
| C#CCOc1ccc(CN[C@@H]2CCC[C@H](N(CC)C(=O)c3nc4c(N)cccc4[nH]3)C2)cc1 [Compound 567] | < 100 |
| CCN(C(=O)c1cc2ccccc2[nH]1)[C@H]1CCC[C@@H](NCc2ccccn2)C1 [Compound 127] | < 100 |
| CCN(C(=O)c1nc2ccccc2[nH]1)[C@H]1CCC[C@@H](NCc2ccc3ocnc3c2)C1 [Compound 489] | < 100 |
| CCN(C(=O)c1cc2ncccc2[nH]1)[C@H]1CCC[C@@H](NCc2ccc(N=[N+]=[N-])cc2)C1 [Compound 407] | < 100 |
| CCN(C(=O)c1cc2cc(F)ccc2[nH]1)[C@H]1CCC[C@@H](NCc2oc3ccccc3c2C#N)C1 [Compound 553] | < 100 |
| CCN(C(=O)c1cc2ncccc2[nH]1)[C@H]1CCC[C@@H](NCc2cccc(N=[N+]=[N-])c2)C1 [Compound 406, N-((1S,3R)-3-((3-azidobenzyl)amino)cyclohexyl)-N-ethyl-1H-pyrrolo[3,2-b]pyridine-2-carboxamide] | < 100 |
| O=C(c1cc2ccccc2[nH]1)N(CC(F)(F)F)[C@H]1CCC[C@H](NCc2ccncc2)C1 [Compound 176] | > 2000 |
| O=C(c1cc2ccccc2[nH]1)N(CC(F)(F)F)[C@H]1CCC[C@@H](NCc2ccncc2)C1 [Compound 177] | 100 to 500 |
| CCN(C(=O)c1cc2ccccc2[nH]1)[C@H]1CCC[C@@H](N[C@@H](c2cncnc2)C(F)(F)F)C1 (single isomer, unassigned) [Compound 413] | 500 to 2000 |
| CCN(C(=O)c1nc2cc(F)ccc2[nH]1)[C@H]1CCC[C@@H](NCc2cccc(C#N)c2)C1 [Compound 528] | < 100 |
| CCN(C(=O)c1cc2ncccc2[nH]1)[C@H]1CCC[C@@H](NCc2cc(C(C)C)no2)C1 [Compound 470] | < 100 |
| CCN(C(=O)c1cc2ncccc2[nH]1)[C@H]1CCC[C@@H](Nc2ccccc2)C1 [Compound 501] | > 2000 |
| CCN(C(=O)c1nc2ccccc2[nH]1)[C@H]1CCC[C@@H](NCc2cc3ccccc3s2)C1 [Compound 490] | < 100 |
| CCN(C(=O)c1ccccn1)[C@H]1CCC[C@@H](NCc2ccccc2)C1 [Compound 404] | > 2000 |

| SMILES | IC50 [nM] |
| --- | --- |
| CCN(C(=O)c1cc2ncccc2[nH]1)[C@H]1CCC[C@@H](NCc2ccc3ncoc3c2)C1 [Compound 441] | < 100 |
| CCN(C(=O)c1cc2ccccc2[nH]1)C1CCCC(NC2CCc3ccccc32)C1 (stereo not shown) [Compound 112] | < 100 |
| CCN(C(=O)c1cc2ccccc2[nH]1)[C@H]1CCC[C@@H](NCc2cnc(OC)nc2)C1 [Compound 132] | < 100 |
| CCN(C(=O)c1cc2ccccc2[nH]1)[C@H]1CCC[C@H](NCC2CCOCC2)C1 [Compound 119] | < 100 |
| CCN(C(=O)c1cc2cc(F)ccc2[nH]1)[C@H]1CCC[C@@H](NCc2cccc(F)c2)C1 [Compound 549] | < 100 |
| CCN(C(=O)c1nc2cc(F)ccc2[nH]1)[C@H]1CCC[C@@H](NCc2ccc(F)cc2)C1 [Compound 526] | < 100 |
| O=C(c1cc2ccccc2[nH]1)N(CC(F)(F)F)[C@H]1CCC[C@@H](NCC2CCOCC2)C1 [Compound 183] | > 2000 |
| O=C(c1cc2ccccc2[nH]1)N(CC(F)(F)F)C1CCC[C@H](NCc2cccnc2)C1 (stereo partly shown) [Compound 174] | > 2000 |
| O=C(c1cc2ncccc2[nH]1)N(CC(F)(F)F)[C@H]1CCC[C@@H](NCc2cccc(F)c2)C1 [Compound 422, N-((1S,3R)-3-((3-fluorobenzyl)amino)cyclohexyl)-N-(2,2,2-trifluoroethyl)-1H-pyrrolo[3,2-b]pyridine-2-carboxamide] | < 100 |
| CCN(C(=O)c1cc2ccccc2[nH]1)[C@@H]1C[C@@H](NCc2ccccc2)CS(=O)(=O)C1 [Compound 314, N-((3R,5R)-5-(benzylamino)-1,1-dioxidotetrahydro-2H-thiopyran-3-yl)-N-ethyl-1H-indole-2-carboxamide] | > 2000 |
| CCN(C(=O)c1cc2ccccc2[nH]1)C1CCC[C@@H](NCc2ccccc2)C1 (stereo partly shown) [Compound 101] | < 100 |
| CCN(C(=O)c1nc2ccccc2[nH]1)[C@H]1CCC[C@@H](NCc2ccc3nccn3c2)C1 [Compound 474] | 100 to 500 |
| C#CCCC1(CCOc2cccc(CN[C@@H]3CCC[C@H](N(CC)C(=O)c4cc5ccccc5[nH]4)C3)c2)N=N1 [Compound 426] | < 100 |
| CCN(C(=O)c1nc2ccccc2[nH]1)[C@H]1CCC[C@@H](NCc2cccc(F)c2)C1 [Compound 480] | < 100 |
| CCN(C(=O)c1cc2cc(F)ccc2[nH]1)[C@H]1CCC[C@@H](NCc2ccc(F)cc2)C1 [Compound 551] | < 100 |

Results, then the molecule that gave them:

| IC50 [nM] | SMILES |
| --- | --- |
| < 100 | CCN(C(=O)c1nc2ccccc2[nH]1)[C@H]1CCC[C@@H](NCc2ccc3cccn3c2)C1 [Compound 514, N-ethyl-N-((1S,3R)-3-((indolizin-6-ylmethyl)amino)cyclohexyl)-1H-benzo[d]imidazole-2-carboxamide] |
| 100 to 500 | CCN(C(=O)c1cc2ccccc2[nH]1)[C@H]1CCC[C@@H](NC2(c3ccccc3)CC2)C1 [Compound 419] |
| < 100 | CCN(C(=O)c1nc2c(C#N)cccc2[nH]1)[C@H]1CCC[C@@H](NCc2ccccc2)C1 [Compound 481, N-((1S,3R)-3-(benzylamino)cyclohexyl)-4-cyano-N-ethyl-1H-benzo[d]imidazole-2-carboxamide] |
| > 2000 | CCN(C(=O)c1cc2ncccc2[nH]1)[C@H]1CCC[C@@H](NCc2ccnc(O)c2)C1 [Compound 434] |
| 500 to 2000 | CCN(C(=O)c1cc2ncccc2[nH]1)[C@H]1CCC[C@@H](NCc2nccs2)C1 [Compound 446] |
| < 100 | CCN(C(=O)c1cc2ccccc2[nH]1)[C@H]1COC[C@@H](N[C@@H]2CCc3ccccc32)C1 [Compound 504, N-((3R,5S)-5-(((R)-2,3-dihydro-1H-inden-1-yl)amino)tetrahydro-2H-pyran-3-yl)-N-ethyl-1H-indole-2-carboxamide] |
| 100 to 500 | CCN(C(=O)c1cc2c([nH]1)CCOC2)[C@H]1CCC[C@@H](NCc2ccccc2)C1 [Compound 503] |
| 100 to 500 | CCN(C(=O)c1cc2ncncc2[nH]1)[C@H]1CCC[C@@H](NCc2ccccc2)C1 [Compound 486] |
| 500 to 2000 | O=C(c1cc2ccccc2[nH]1)N(CC(F)(F)F)[C@H]1CCC[C@H](NCc2ccccc2)C1 [Compound 178] |
| 500 to 2000 | CCN(C(=O)c1cc2ccccc2[nH]1)[C@@H]1CCC[C@@H](N[C@H]2CCc3ccccc32)C1 [Compound 113] |
| < 100 | CCN(C(=O)c1cc2ccccc2[nH]1)[C@H]1CCC[C@@H](NCc2cccc(O)c2)C1 [Compound 427] |
| > 2000 | CCN(C(=O)c1cc2ncccc2[nH]1)[C@H]1CCC[C@@H](NCc2cnoc2)C1 [Compound 438] |
| 100 to 500 | CCN(C(=O)c1cc2ncccc2[nH]1)[C@H]1CCC[C@@H](NCc2c[nH]cn2)C1 [Compound 447] |
| > 2000 | CCN(C(=O)c1cc2ccccc2[nH]1)[C@H]1CCC[C@H](NC2(c3ccccc3)CC2)C1 [Compound 421] |
| < 100 | CCN(C(=O)c1nc2ccccc2[nH]1)[C@H]1CCC[C@@H](NCc2cc3cc(F)ccc3o2)C1 [Compound 478] |
| < 100 | CCN(C(=O)c1nc2cc(C#N)ccc2[nH]1)[C@H]1CCC[C@@H](NCc2ccccc2)C1 [Compound 485] |
| 100 to 500 | CCN(C(=O)c1nc2ccccc2[nH]1)[C@H]1CCC[C@@H](NCc2nnc(C3CC3)o2)C1 [Compound 513, N-((1S,3R)-3-(((5-cyclopropyl-1,3,4-oxadiazol-2-yl)methyl)amino)cyclohexyl)-N-ethyl-1H-benzo[d]imidazole-2-carboxamide] |
| < 100 | CCN(C(=O)c1cc2cc(F)ccc2[nH]1)[C@H]1CCC[C@@H](NCc2oc3ccccc3c2C)C1 [Compound 548] |
| 100 to 500 | CCN(C(=O)c1cc2ccccc2[nH]1)[C@H]1CCC[C@@H](NCc2nnc(C)o2)C1 [Compound 469] |
| < 100 | CCN(C(=O)c1cc2ccccc2[nH]1)[C@H]1CCC[C@@H](NCc2ccc3ocnc3c2)C1 [Compound 459] |
| 500 to 2000 | O=C(c1cc2ccccc2[nH]1)N(CC(F)(F)F)[C@H]1CCC[C@H](NCC2CCOCC2)C1 [Compound 182] |
| < 100 | CCN(C(=O)c1nc2ccccc2[nH]1)[C@H]1CCC[C@@H](NCc2ccc(OC(F)(F)F)cc2)C1 [Compound 473] |
| 100 to 500 | O=C(c1cc2ccccc2[nH]1)N(CC(F)(F)F)[C@H]1COC[C@@H](NCc2ccccc2)C1 [Compound 302] |
| < 100 | CCN(C(=O)c1cc2cc(C#N)ccc2[nH]1)[C@H]1CCC[C@@H](NCc2oc3ccccc3c2C#N)C1 [Compound 536, 5-cyano-N-((1S,3R)-3-(((3-cyanobenzofuran-2-yl)methyl)amino)cyclohexyl)-N-ethyl-1H-indole-2-carboxamide] |
| 500 to 2000 | CCN(C(=O)c1cc2ncccc2[nH]1)[C@H]1CCC[C@H](NC2(c3ccccc3)CC2)C1 [Compound 420] |
| < 100 | CCN(C(=O)c1cc2cc(C#N)ccc2[nH]1)[C@H]1CCC[C@@H](NCc2ccc(F)cc2)C1 [Compound 532, 5-cyano-N-ethyl-N-((1S,3R)-3-((4-fluorobenzyl)amino)cyclohexyl)-1H-indole-2-carboxamide] |
